Assay results from ChEMBL document CHEMBL3045868, “Synthesis and antibacterial activities of para-alkoxy phenyl--ketoaldehyde derivatives” (Med Chem Res, 2013).
Values after ≈ are worked out from the molar mass of the structure shown.

Key:
Staphylococcus aureus = test: Antibacterial activity against Staphylococcus aureus ATCC 25923 assessed as growth inhibition after 16 to 18 hr by NCCLS agar dilution method; format: functional
Escherichia coli = test: Antibacterial activity against Escherichia coli ATCC 25922 assessed as growth inhibition after 16 to 18 hr NCCLS agar dilution method; format: functional
Pseudomonas aeruginosa = test: Antibacterial activity against Pseudomonas aeruginosa ATCC 27853 assessed as growth inhibition after 16 to 18 hr NCCLS agar dilution method; format: functional
Helicobacter pylori [1] = test: Antibacterial activity against Helicobacter pylori 05-4 assessed as growth inhibition after 16 to 18 hr NCCLS agar dilution method; format: functional, 05-Apr
Helicobacter pylori [2] = test: Antibacterial activity against Helicobacter pylori 05-2 assessed as growth inhibition after 16 to 18 hr NCCLS agar dilution method; format: functional
Helicobacter pylori [3] = test: Antibacterial activity against Helicobacter pylori 05-1 assessed as growth inhibition after 16 to 18 hr NCCLS agar dilution method; format: functional
Helicobacter pylori [4] = test: Antibacterial activity against Helicobacter pylori 06-4 assessed as growth inhibition after 16 to 18 hr NCCLS agar dilution method; format: functional
Helicobacter pylori [5] = test: Antibacterial activity against Helicobacter pylori assessed as growth inhibition after 16 to 18 hr NCCLS agar dilution method; format: functional
Helicobacter pylori [6] = test: Antibacterial activity against Helicobacter pylori 05-14 assessed as growth inhibition after 16 to 18 hr NCCLS agar dilution method; format: functional
Helicobacter pylori [7] = test: Antibacterial activity against Helicobacter pylori 05-12 assessed as growth inhibition after 16 to 18 hr NCCLS agar dilution method; format: functional
Helicobacter pylori [8] = test: Antibacterial activity against Helicobacter pylori 06-6 assessed as growth inhibition after 16 to 18 hr NCCLS agar dilution method; format: functional
Helicobacter pylori [9] = test: Antibacterial activity against Helicobacter pylori 06-8 assessed as growth inhibition after 16 to 18 hr NCCLS agar dilution method; format: functional
Helicobacter pylori [10] = test: Antibacterial activity against Helicobacter pylori 05-5 assessed as growth inhibition after 16 to 18 hr NCCLS agar dilution method; format: functional
Helicobacter pylori [11] = test: Antibacterial activity against Helicobacter pylori 06-7 assessed as growth inhibition after 16 to 18 hr NCCLS agar dilution method; format: functional
Helicobacter pylori [12] = test: Antibacterial activity against Helicobacter pylori 06-2 assessed as growth inhibition after 16 to 18 hr NCCLS agar dilution method; format: functional
Helicobacter pylori [13] = test: Antibacterial activity against Helicobacter pylori 05-9 assessed as growth inhibition after 16 to 18 hr NCCLS agar dilution method; format: functional
Helicobacter pylori [14] = test: Antibacterial activity against Helicobacter pylori 06-3 assessed as growth inhibition after 16 to 18 hr NCCLS agar dilution method; format: functional
Helicobacter pylori [15] = test: Antibacterial activity against Helicobacter pylori ATCC 11637 assessed as growth inhibition after 16 to 18 hr NCCLS agar dilution method; format: functional
Helicobacter pylori [16] = test: Antibacterial activity against Helicobacter pylori 06-1 assessed as growth inhibition after 16 to 18 hr NCCLS agar dilution method; format: functional
Helicobacter pylori [17] = test: Antibacterial activity against Helicobacter pylori 05-3 assessed as growth inhibition after 16 to 18 hr NCCLS agar dilution method; format: functional
Helicobacter pylori [18] = test: Antibacterial activity against Helicobacter pylori 06-5 assessed as growth inhibition after 16 to 18 hr NCCLS agar dilution method; format: functional

SMILES	MIC (Staphylococcus aureus)	MIC (Escherichia coli)	MIC (Pseudomonas aeruginosa)	MIC (Helicobacter pylori [1])	MIC (Helicobacter pylori [2])	MIC (Helicobacter pylori [3])	MIC (Helicobacter pylori [4])	MIC50 (Helicobacter pylori [5])	MIC90 (Helicobacter pylori [5])	MIC (Helicobacter pylori [6])	MIC (Helicobacter pylori [7])	MIC (Helicobacter pylori [8])	MIC (Helicobacter pylori [9])	MIC (Helicobacter pylori [10])	MIC (Helicobacter pylori [11])	MIC (Helicobacter pylori [12])	MIC (Helicobacter pylori [13])	MIC (Helicobacter pylori [14])	MIC (Helicobacter pylori [15])	MIC (Helicobacter pylori [16])	other results
CO/N=C(/C/C=N/OC)c1ccc(OC(C)C)cc1	> 64 µg/mL	> 64 µg/mL	> 64 µg/mL																		
CCCCOc1ccc(/C(C/C=N/OCC)=N\OCC)cc1	> 64 µg/mL	> 64 µg/mL	> 64 µg/mL																		
CCOc1ccc(/C(C/C=N/OC)=N\OC)cc1	> 64 µg/mL	> 64 µg/mL	> 64 µg/mL																		
COc1ccc(C(=O)C/C=N/NC(N)=O)cc1	> 64 µg/mL	> 64 µg/mL	> 64 µg/mL	> 128 µg/mL	> 128 µg/mL	> 128 µg/mL	> 128 µg/mL	> 128 µg/mL	> 128 µg/mL	> 128 µg/mL	> 128 µg/mL	128 µg/mL (≈ 544 µM)	> 128 µg/mL	> 128 µg/mL	128 µg/mL (≈ 544 µM)	> 128 µg/mL	> 128 µg/mL	> 128 µg/mL	> 128 µg/mL	> 128 µg/mL	MIC (Helicobacter pylori [17]): > 128 µg/mL; MIC (Helicobacter pylori [18]): > 128 µg/mL
CCCCOc1ccc(C(=O)C/C=N/OCC)cc1	> 64 µg/mL	> 64 µg/mL	> 64 µg/mL																		
CO/N=C(/C/C=N/OC)c1ccc(OC)cc1	> 64 µg/mL	> 64 µg/mL	> 64 µg/mL																		
CCCCOc1ccc(C(=O)C/C=N/OC)cc1	> 64 µg/mL	> 64 µg/mL	64 µg/mL (≈ 257 µM)																		
COc1ccc(C(=O)/C=C\O)cc1	> 64 µg/mL	> 64 µg/mL	> 64 µg/mL	> 128 µg/mL	> 128 µg/mL	> 128 µg/mL	128 µg/mL (≈ 718 µM)	> 128 µg/mL	> 128 µg/mL	> 128 µg/mL	> 128 µg/mL	128 µg/mL (≈ 718 µM)	> 128 µg/mL	> 128 µg/mL	128 µg/mL (≈ 718 µM)	> 128 µg/mL	> 128 µg/mL	> 128 µg/mL	128 µg/mL (≈ 718 µM)	> 128 µg/mL	MIC (Helicobacter pylori [17]): > 128 µg/mL; MIC (Helicobacter pylori [18]): 128 µg/mL (≈ 718 µM)
CC[C@H]1OC(=O)[C@H](C)[C@@H](O[C@H]2C[C@@](C)(OC)[C@@H](O)[C@H](C)O2)[C@H](C)[C@@H](O[C@@H]2O[C@H](C)C[C@H](N(C)C)[C@H]2O)[C@](C)(OC)C[C@@H](C)C(=O)[C@H](C)[C@@H](O)[C@]1(C)O [CLARITHROMYCIN]	0.12 µg/mL (≈ 0.16 µM)	32 µg/mL (≈ 42.8 µM)	> 64 µg/mL	> 128 µg/mL	64 µg/mL (≈ 85.6 µM)	> 128 µg/mL	> 128 µg/mL	> 128 µg/mL	> 128 µg/mL	> 128 µg/mL	> 128 µg/mL	128 µg/mL (≈ 171 µM)	> 128 µg/mL	> 128 µg/mL	128 µg/mL (≈ 171 µM)	> 128 µg/mL	> 128 µg/mL	> 128 µg/mL	32 µg/mL (≈ 42.8 µM)	64 µg/mL (≈ 85.6 µM)	MIC (Helicobacter pylori [17]): 64 µg/mL (≈ 85.6 µM); MIC (Helicobacter pylori [18]): > 128 µg/mL
CCO/N=C/CC(=O)c1ccc(OC)cc1	4 µg/mL (≈ 18.1 µM)	> 64 µg/mL	> 64 µg/mL																		
Cc1ncc([N+](=O)[O-])n1CCO [METRONIDAZOLE]				> 128 µg/mL	> 128 µg/mL	> 128 µg/mL	> 128 µg/mL	> 128 µg/mL	> 128 µg/mL	> 128 µg/mL	> 128 µg/mL	> 128 µg/mL	> 128 µg/mL	> 128 µg/mL	> 128 µg/mL	> 128 µg/mL	> 128 µg/mL	> 128 µg/mL	32 µg/mL (≈ 187 µM)	> 128 µg/mL	MIC (Helicobacter pylori [17]): > 128 µg/mL; MIC (Helicobacter pylori [18]): > 128 µg/mL
